We go through two compounds from patent US8080580B2, “Dioxa-bicyclo[3.2.1]octane-2,3,4-triol derivatives” (Pfizer Inc., priority 2008, dated 2011).

By AUC(0-t) is commonly meant the area under the concentration-time curve up to a stated or last time point. Lower therefore signals low exposure. By Cmax is commonly meant the peak of the concentration-time curve. The Tmax is the time at which the peak concentration occurs. Broadly, the AUC(0-inf) is total exposure, with the tail of the curve extrapolated. Broadly, the half-life is the time needed for the level to fall by half in the phase considered. As a reminder, the IC50 is the concentration that inhibits the measured activity by half. Read a low IC50 as inhibition by little substance.

Data set [1] in a line: PK satellite group of the in-vivo UGE assay (plasma by LC-MS/MS). Particulars: male, Sprague Dawley, rat plasma, oral gavage; for Tmax: read-out: Mean PK Parameters (n = 2) tmax. The procedure: Male Sprague Dawley rats (˜300 g) were singly housed in metabolic cages for urine collection. […] Rats (n=2 to 5/group) received vehicle or compound by oral gavage. Dosing solutions were 0.03 mg/mL, 0.3 mg/mL, 0.9 mg/mL, 3 mg/mL, 9 mg/mL and 18 mg/mL for the 0.1 mg/kg, 1 mg/kg, 3 mg/kg, 10 mg/kg, 30 mg/kg and 60 mg/kg doses respectively. Dosing volume was 1 mL/300 g of body weight for all doses. […] The vehicle was 20% v/v PEG400 and 24% v/v hydroxypropyl beta cyclodextrin; HPBCD. Following oral administration, urine was collected for 24 hours. Glucose concentration was measured in urine by UV absorbance spectrophotometry at 340 nm using a Roche Hitachi 917 spectrophotometer (Diamond Diagnostics, Holliston, Mass.). The total amount of glucose excreted in the urine was calculated as the product of urine concentration and urine volume using the formula below: urinary glucose excreted (mg)/200 g body weight=urinary glucose concentration (mg/dL)×urine volume (dL)×200/rat body weight (g). […] Blood (0.1 mL) was collected from the PK satellite group animals at 1, 2, 4, 7, 24 hours postdose to obtain plasma and analyzed by LC-MS/MS.

A short description of data set [2]: Pharmacokinetic testing in rats (IV or PO). Particulars: rat. The format is in vivo. The procedure:
Examples 1A, 2A, 4A, 12A, and 14A were tested in rats to assess pharmacokinetic parameters including maximum concentration (Cmax), area under the plasma concentration time curve (AUC), clearance (CL), steady state volume of distribution (Vss), half life (t1/2), and bioavailability (F). Male Sprague Dawley rats (˜300 g) were used. Rats received compound by intravenous (IV) or oral gavage (PO) administration and the doses tested including vehicle to formulate dosing solutions are listed in Table 5.
Following IV or PO administration, 0.2 mL blood was sampled from the jugular vein at various timepoints (Table 5). Twenty microL aliquots of plasma samples and standards were subjected to protein precipitation with acetonitrile containing an internal standard. Samples were vortexed and centrifuged to obtain supernatant which was analyzed by LC-MS/MS. Analyst (Version 1.4.1) was used to measure peak areas and peak area ratios of analyte to internal standard were calculated. LC-MS/MS conditions are as follows: Mass Spectrometer+Source Type was Sciex API 4000−Turbo Spray; HPLC pump was Shimadzu; Autosampler was CTC PAL Autosampler; Injection volume was 3.0 to 10 microL; A gradient was used with mobile phase A: 10 mM ammonium acetate and 1% Isopropyl alcohol in water; B: Acetonitrile; Flowrate 0.300 mL per minute (Column 2.0×30 mm 5 microm LUNA C18 column (phenomenex)). Detection mode was negative.
A calibration curve was constructed from the peak area ratios of the standards to the internal standard by applying a weighted linear (1/x or 1/x2) regression. The dynamic range of the standard curve was 5.00 ng/mL to 5000 ng/mL.
Pharmacokinetic parameters were determined from individual animal data using non-compartmental analysis in Watson (version 7.2). Concentrations below the limit of quantitation (BLQ) were recorded as 0 ng/mL for use in calculations.
The following calculations were used: AUC(0−τ)=Determined using the linear trapezoidal method AUC(0−□)=AUC(0−τ) plus extrapolated area determined by dividing plasma concentration at τ by the slope of the terminal log-linear phase CL=Dose/AUC(0−∞) Vdss=CL×MRT Cmax=Recorded directly from plasma concentration time curve Tmax=Recorded directly from plasma concentration time curve t½=ln(0.5)/slope of the terminal log-linear phase F %=AUC(0−∞)PO per dose/AUC(0−∞)IV per dose C(0)=Extrapolated by linear regression from the apparent distribution phase following IV administration MRT=AUMC(AUC(0−∞)/AUC(0−∞)

Another data set deals with T1, hSGLT1 (Homo sapiens, UniProt P13866).
T1 sequence (P13866 1-664): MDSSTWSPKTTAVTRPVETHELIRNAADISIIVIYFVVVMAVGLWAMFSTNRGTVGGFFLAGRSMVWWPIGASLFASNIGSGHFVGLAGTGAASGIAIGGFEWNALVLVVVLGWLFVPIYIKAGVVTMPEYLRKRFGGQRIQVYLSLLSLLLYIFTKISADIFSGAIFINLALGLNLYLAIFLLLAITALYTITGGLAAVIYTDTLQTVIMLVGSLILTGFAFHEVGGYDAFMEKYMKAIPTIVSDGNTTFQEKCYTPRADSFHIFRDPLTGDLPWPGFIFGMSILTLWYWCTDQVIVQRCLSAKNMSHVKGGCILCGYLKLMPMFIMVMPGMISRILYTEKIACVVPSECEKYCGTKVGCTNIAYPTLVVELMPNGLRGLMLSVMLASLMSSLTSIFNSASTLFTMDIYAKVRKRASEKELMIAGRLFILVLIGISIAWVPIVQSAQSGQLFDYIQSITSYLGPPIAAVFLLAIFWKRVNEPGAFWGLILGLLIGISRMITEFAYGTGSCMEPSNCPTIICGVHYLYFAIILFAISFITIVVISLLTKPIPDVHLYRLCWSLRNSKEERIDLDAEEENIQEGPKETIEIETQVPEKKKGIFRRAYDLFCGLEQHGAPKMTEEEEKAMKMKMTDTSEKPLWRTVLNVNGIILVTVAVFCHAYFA
Briefly: SGLT1 functional assay: hSGLT1 IC50 (selectivity counter-screen to the SGLT2 AMG uptake assay). The data set is classed as cell-based. Particulars: individual runs (Run No.). (Counterscreens check selectivity or assay interference.)

Setting [3] is: male, Sprague Dawley, plasma, IV, 2 mg/kg.
[4] abbreviates: male, Sprague Dawley, plasma, PO, 10 mg/kg, PEG200/0.5% MC.
Where [5] appears, read: male, Sprague Dawley, plasma, PO, 2 mg/kg, Tween 80/0.5% MC.
Where [6] appears, read: male, Sprague Dawley, plasma, PO, 5 mg/kg, 20% PEG/24% HBCD.

“And” between values parts separate entries of the source, which are not always exact repeats. Identical values can stand only once. Like-named read-outs stand apart in the source and are kept apart here.

As for `COc1ccc(Cc2cc([C@]34OC[C@](CO)(O3)[C@@H](O)[C@H](O)[C@H]4O)ccc2C)cc1` [Example 1A, (1S,2S,3S,4R,5S)-1-hydroxymethyl-5-[3-(4-methoxy-benzyl)-4-methyl-phenyl]-6,8-dioxa-bicyclo[3.2.1]octane-2,3,4-triol], in data set [1] (10 mg/kg), the AUC(0-t) is 6630 ng·h/mL, the Cmax came out at 1260 ng/mL and the Tmax came out at 1 h. For the same compound, the AUC(0-inf) in data set [2] (setting [3]) turned out to be 947 ng·h/mL. Moreover, in data set [2] (setting [4]), the AUC(0-inf) amounted to 2680 ng·h/mL, the Cmax was determined as 1650 ng/mL and the half-life was 2.82 h. In data set [2] (IV, 2 mg/kg), this compound showed a CL of 37.1 mL/min/kg, a Vss of 1.71 L/kg and a t1/2 of 0.962 h. In data set [2] (PO, 10 mg/kg, PEG200/0.5% MC), this compound registered an F of 56.5%. The IC50 against hSGLT1 was 359 nM and 1080 nM and 454 nM and 327 nM and 562 nM and 262 nM.

`CCOc1ccc(Cc2cc([C@]34OC[C@](CO)(O3)[C@@H](O)[C@H](O)[C@H]4O)ccc2Cl)cc1` [Example 4A, (1S,2S,3S,4R,5S)-5-[4-chloro-3-(4-ethoxy-benzyl)-phenyl]-1-hydroxymethyl-6,8-dioxa-bicyclo[3.2.1]octane-2,3,4-triol]: the AUC(0-t) in data set [1] (0.1 mg/kg) was 188 ng·h/mL; in data set [1] (1 mg/kg), 2000 ng·h/mL; in data set [1] (3 mg/kg), 7080 ng·h/mL; in data set [1] (10 mg/kg), 26400 ng·h/mL; in data set [1] (30 mg/kg), 10700 ng·h/mL; in data set [1] (60 mg/kg) it was 233000 ng·h/mL. Moreover, the Cmax was 43.4 ng/mL in data set [1] (0.1 mg/kg); 372 ng/mL in data set [1] (1 mg/kg); 1320 ng/mL in data set [1] (3 mg/kg); 3100 ng/mL in data set [1] (10 mg/kg); 10500 ng/mL in data set [1] (30 mg/kg); 25300 ng/mL in data set [1] (60 mg/kg). Moreover, the Cmax in data set [2] (setting [5]) stood at 772 ng/mL; in data set [2] (setting [6]) it was 1190 ng/mL. In addition, the time of peak concentration (Tmax) in data set [1] (1 mg/kg) was 1 h; in data set [1] (3 mg/kg), 1 h; in data set [1] (10 mg/kg) it was 2.5 h; in data set [1] (30 mg/kg) it was 1 h; in data set [1] (60 mg/kg), 2 h. Moreover, the AUC(0-inf) in data set [2] (setting [3]) was found to be 8480 ng·h/mL; in data set [2] (setting [5]), 5650 ng·h/mL; in data set [2] (setting [6]), 16800 ng·h/mL. Moreover, the Vd in data set [2] (male, Sprague Dawley, plasma, IV, 2 mg/kg, read-out: Vss) amounted to 1.1 L/kg. This compound showed a half-life in data set [2] (setting [5]) of 3.7 h. In data set [2] (IV, 2 mg/kg), this compound gave a CL of 4.04 mL/min/kg. The t1/2 in data set [2] (IV, 2 mg/kg) is recorded as 4.1 h. Further, the F was determined as 67% in data set [2] (PO, 2 mg/kg, Tween 80/0.5% MC) and 79% in data set [2] (PO, 5 mg/kg, 20% PEG/24% HBCD). On hSGLT1, the IC50 is 1590 nM and 1010 nM and 1750 nM and > 1000 nM and 2090 nM and 1810 nM and 2860 nM and 2480 nM and 2840 nM.
